Source: patent US10189839B2, “Tricyclic imidazole compounds as inhibitors of tryptophan hydroxylase” (ACTELION PHARMACEUTICALS LTD, priority 2013, dated 2019)

Molecular target: T1, full length human TPH1 (Homo sapiens, UniProt P17752)
T1 construct: To generate the enzyme, full length human TPH1 is cloned into the plasmid pET20b(+); made in house; host or cells: E. coli
T1 sequence (P17752 1-444): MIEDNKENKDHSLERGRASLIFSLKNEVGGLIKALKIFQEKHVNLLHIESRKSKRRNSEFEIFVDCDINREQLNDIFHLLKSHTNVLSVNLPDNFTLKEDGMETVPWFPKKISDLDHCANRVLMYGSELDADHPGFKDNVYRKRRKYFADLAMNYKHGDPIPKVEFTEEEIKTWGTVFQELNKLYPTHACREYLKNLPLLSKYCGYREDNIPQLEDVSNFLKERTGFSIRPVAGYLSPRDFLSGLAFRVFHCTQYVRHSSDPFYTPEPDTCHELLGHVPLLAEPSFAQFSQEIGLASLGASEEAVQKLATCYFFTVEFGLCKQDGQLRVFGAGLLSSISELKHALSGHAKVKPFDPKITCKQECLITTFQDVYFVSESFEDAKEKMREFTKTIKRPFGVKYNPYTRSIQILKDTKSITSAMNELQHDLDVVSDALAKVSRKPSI
Experiment: Biochemical in vitro assay using fluorescence readout (TPH1 enzyme activity)
From the text: Inhibitory activities on tryptophan hydroxylase 1 have been measured for each example compound using the following procedure:
Biochemical In Vitro Assay Using Fluorescence Readout
To generate the enzyme, full length human TPH1 is cloned into the plasmid pET20b(+) (Novagen) and expressed in E. coli. The bacterial cells are ruptured by sonication on ice and the lysate is cleared by centrifugation. The resulting protein in the pellet is re-extracted and TPH1 is purified from the obtained lysate by affinity chromatography using a pterin cosubstrate analog immobilized to the resin of the column. The protein is further purified by size exclusion chromatography to remove protein aggregates. The activity of TPH1 is determined by using a fluorescence assay. The enzyme activity assay is carried out at 15° C. with atmosphere oxygen for the duration of 60 minutes in a volume of 64 μl. The reaction is carried out in a 0.1M Tris-HCl buffer, adjusted to pH 7.6, containing 1 mM DTT, 0.2 mg/ml catalase, 100 μM (±)-6-methyl-5,6,7,8-tetrahydropterine dihydrochloride, 40 μM L-tryptophan, and 40-80 nM of TPH1. The reaction is started by bringing together L-tryptophan with all the other reaction substituents and stopped by quenching with perchloric acid (HClO4). The amount of 5-hydroxy-L-tryptophan produced during the enzymatic reaction is determined by fluorescence readout. Fluorescence, as determined at 540 nm when excited at 300 nm wavelength, increases proportionally to the 5-hydroxy-L-tryptophan formed. Compounds are prepared as 10 mM stock solution in DMSO, then diluted in 384-well plates using DMSO followed by a transfer of the dilutions into the assay plate. Fluorescence is measured for each well and the fluorescence at 540 nm wavelength is compared to the fluorescence of the vehicle in place of compound. Inhibitory activities of example compounds with respect to the TPH1 protein are determined by calculating the IC50 value (the concentration of compound needed to inhibit 50% of the enzyme activity). The calculated IC50 values may fluctuate depending on the daily biochemical assay performance. Fluctuations of this kind are known to those skilled in the art. In the case where IC50 values have been determined several times for the same compound, the mean is given.

[1] = Table 1, mean where determined several times

Compound	IC50 [1]	IC50 (Table 2)
Cc1cnc(C2c3c(nc4n3CCCC4)CCN2C(=O)COc2ccc(N3CCCS3(=O)=O)nc2Cl)c(F)c1 (stereo not drawn) [Example 1.6.5, 2-((2-chloro-6-(1,1-dioxidoisothiazolidin-2-yl)pyridin-3-yl)oxy)-1-(1-(3-fluoro-5-methylpyridin-2-yl)-3,4,6,7,8,9-hexahydroimidazo[1,2-a:5,4-c′]dipyridin-2(1H)-yl)ethanone]	16 nM	
Cc1cnc(C2c3c(nc4n3CCCC4)CCN2C(=O)COc2ccc(N(C)S(C)(=O)=O)nc2Cl)c(F)c1 (stereo not drawn) [Example 1.6.6, N-(6-chloro-5-(2-(1-(3-fluoro-5-methylpyridin-2-yl)-3,4,6,7,8,9-hexahydroimidazo[1,2-a:5,4-c′]dipyridin-2(1H)-yl)-2-oxoethoxy)pyridin-2-yl)-N-methylmethanesulfonamide]	44 nM	
CCc1nc(C(=O)NC2CC2)ccc1OCC(=O)N1CCc2nc3n(c2C1c1ncc(C)cc1F)CCCC3 (stereo not drawn) [Example 1.6.7, N-cyclopropyl-6-ethyl-5-(2-(1-(3-fluoro-5-methylpyridin-2-yl)-3,4,6,7,8,9-hexahydroimidazo[1,2-a:5,4-c′]dipyridin-2(1H)-yl)-2-oxoethoxy)picolinamide]	8 nM	
CNC(=O)c1csc(C2c3c(nc4n3CCCC4)CCN2C(=O)COc2ccc(NS(C)(=O)=O)nc2Cl)n1 (stereo not drawn) [Example 1.7.1, 2-(2-(2-((2-Chloro-6-(methylsulfonamido)pyridin-3-yl)oxy)acetyl)-1,2,3,4,6,7,8,9-octahydroimidazo[1,2-a:5,4-c′]dipyridin-1-yl)-N-methylthiazole-4-carboxamide]		844 nM
CN(C(=O)c1ccc(OCC(=O)N2CCc3nc4n(c3C2c2ccc(C3CC3)cc2F)CCCC4)c(Cl)n1)C1CC1 (stereo not drawn) [Example 1.8.1, 6-chloro-N-cyclopropyl-5-(2-(1-(4-cyclopropyl-2-fluorophenyl)-3,4,6,7,8,9-hexahydroimidazo[1,2-a:5,4-c′]dipyridin-2(1H)-yl)-2-oxoethoxy)-N-methylpicolinamide]	20 nM	
O=C(COc1ccc(-c2ncco2)nc1Cl)N1CCc2nc3n(c2C1c1ccc(C2CC2)cc1F)CCCC3 (stereo not drawn) [Example 1.8.2, 2-((2-chloro-6-(oxazol-2-yl)pyridin-3-yl)oxy)-1-(1-(4-cyclopropyl-2-fluorophenyl)-3,4,6,7,8,9-hexahydroimi-dazo[1,2-a:5,4-c′]dipyridin-2(1H)-yl)ethanone]	17 nM	
CS(=O)(=O)Nc1ccc(OCC(=O)N2CCc3nc4n(c3C2c2ccc(C3CC3)cc2F)CCCC4)c(Cl)n1 (stereo not drawn) [Example 1.8.3, N-(6-chloro-5-(2-(1-(4-cyclopropyl-2-fluorophenyl)-3,4,6,7,8,9-hexahydroimidazo[1,2-a:5,4-c′]dipyridin-2(1H)-yl)-2-oxoethoxy)pyridin-2-yl)methanesulfonamide]	22 nM	
CN(C)C(=O)c1ccc(OCC(=O)N2CCc3nc4n(c3C2c2ccc(C3CC3)cc2F)CCCC4)c(Cl)n1 (stereo not drawn) [Example 1.8.4, 6-chloro-5-(2-(1-(4-cyclopropyl-2-fluorophenyl)-3,4,6,7,8,9-hexahydroimidazo[1,2-a:5,4-c′]dipyridin-2(1H)-yl)-2-oxoethoxy)-N,N-dimethylpicolinamide]	11 nM	
O=C(NC1CC1)c1ccc(OCC(=O)N2CCc3nc4n(c3C2c2ccc(C3CC3)cc2F)CCCC4)c(Cl)n1 (stereo not drawn) [Example 1.8.5, 6-chloro-N-cyclopropyl-5-(2-(1-(4-cyclopropyl-2-fluorophenyl)-3,4,6,7,8,9-hexahydroimidazo[1,2-a:5,4-c′]dipyridin-2(1H)-yl)-2-oxoethoxy)picolinamide]	24 nM	
O=C(NC1CC1)c1ccc(OCC(=O)N2CCc3nc4n(c3[C@@H]2c2ccc(C3CC3)cc2F)CCCC4)c(Cl)n1 [Example 1.8.6, (S)-6-chloro-N-cyclopropyl-5-(2-(1-(4-cyclopropyl-2-fluorophenyl)-3,4,6,7,8,9-hexahydroimidazo[1,2-a:5,4-c′]dipyridin-2(1H)-yl)-2-oxoethoxy)picolinamide]	9 nM	
CCc1nc(NS(C)(=O)=O)ncc1OCC(=O)N1CCc2nc3n(c2C1c1ccc(C2CC2)cc1F)CCCC3 (stereo not drawn) [Example 1.8.7, N-(5-(2-(1-(4-cyclopropyl-2-fluorophenyl)-3,4,6,7,8,9-hexahydroimidazo[1,2-a:5,4-c′]dipyridin-2(1H)-yl)-2-oxoethoxy)-4-ethylpyrimidin-2-yl)methanesulfonamide]	54 nM	
Cc1ccc(C2c3c(nc4n3CCCC4)CCN2C(=O)COc2ccc(-c3ncco3)nc2Cl)c(F)c1F (stereo not drawn) [Example 1.9.1, 2-((2-chloro-6-(oxazol-2-yl)pyridin-3-yl)oxy)-1-(1-(2,3-difluoro-4-methylphenyl)-3,4,6,7,8,9-hexahydroimida-zo[1,2-a:5,4-c′]dipyridin-2(1H)-yl)ethanone]	20 nM	
Cc1ccc(C2c3c(nc4n3CCCC4)CCN2C(=O)COc2ccc(NS(C)(=O)=O)nc2Cl)c(F)c1F (stereo not drawn) [Example 1.9.2, N-(6-chloro-5-(2-(1-(2,3-difluoro-4-methylphenyl)-3,4,6,7,8,9-hexahydroimidazo[1,2-a:5,4-c′]dipyridin-2(1H)-yl)-2-oxoethoxy)pyridin-2-yl)methanesulfonamide]	26 nM	
Cc1ccc(C2c3c(nc4n3CCCC4)CCN2C(=O)COc2ccc(C(=O)N(C)C3CC3)nc2Cl)c(F)c1F (stereo not drawn) [Example 1.9.3, 6-chloro-N-cyclopropyl-5-(2-(1-(2,3-difluoro-4-methyl-phenyl)-3,4,6,7,8,9-hexahydroimidazo[1,2-a:5,4-c′]di-pyridin-2(1H)-yl)-2-oxoethoxy)-N-methylpicolinamide]	27 nM	
Cc1ccc(C2c3c(nc4n3CCCC4)CCN2C(=O)COc2ccc(N3CCN(C)CC3)nc2Cl)c(F)c1F (stereo not drawn) [Example 1.9.4, 2-((2-chloro-6-(4-methylpiperazin-1-yl)pyridin-3-yl)oxy)-1-(1-(2,3-difluoro-4-methylphenyl)-3,4,6,7,8,9-hexahydroimidazo[1,2-a:5,4-c′]dipyridin-2(1H)-yl)ethanone]	18 nM	
Cc1ccc(C2c3c(nc4n3CCCC4)CCN2C(=O)COc2ccc(C(F)(F)F)cc2Cl)c(F)c1F (stereo not drawn) [Example 1.9.5, 2-(2-chloro-4-(trifluoromethyl)phenoxy)-1-(1-(2,3-difluoro-4-methylphenyl)-3,4,6,7,8,9-hexahydroimidazo[1,2-a:5,4-c′]dipyridin-2(1H)-yl)ethanone]	87 nM	
Cc1ccc(C2c3c(nc4n3CCCC4)CCN2C(=O)COc2ccc(N3CCCS3(=O)=O)nc2Cl)c(F)c1F (stereo not drawn) [Example 1.9.6, 2-((2-chloro-6-(1,1-dioxidoisothiazolidin-2-yl)pyridin-3-yl)oxy)-1-(1-(2,3-difluoro-4-methylphenyl)-3,4,6,7,8,9-hexahydroimidazo[1,2-a:5,4-c′]dipyridin-2(1H)-yl)ethanone]	9 nM	
CCc1nc(NS(C)(=O)=O)ccc1OCC(=O)N1CCc2nc3n(c2C1c1ccc(C)c(F)c1F)CCCC3 (stereo not drawn) [Example 1.9.7, N-(5-(2-(1-(2,3-difluoro-4-methylphenyl)-3,4,6,7,8,9-hexahydroimidazo[1,2-a:5,4-c′]dipyridin-2(1H)-yl)-2-oxoethoxy)-6-ethylpyridin-2-yl)methanesulfonamide]	8 nM	
Cc1ccc(C2c3c(nc4n3CCCC4)CCN2C(=O)COc2ccc(C(=O)NC3CC3)nc2Cl)c(F)c1F (stereo not drawn) [Example 1.9.8, 6-chloro-N-cyclopropyl-5-(2-(1-(2,3-difluoro-4-methylphenyl)-3,4,6,7,8,9-hexahydroimidazo[1,2-a:5,4-c′]dipyridin-2(1H)-yl)-2-oxoethoxy)picolinamide]	16 nM	
CCc1nc(NS(C)(=O)=O)ncc1OCC(=O)N1CCc2nc3n(c2C1c1ccc(C)c(F)c1F)CCCC3 (stereo not drawn) [Example 1.9.9, N-(5-(2-(1-(2,3-difluoro-4-methylphenyl)-3,4,6,7,8,9-hexahydroimidazo[1,2-a:5,4-c′]dipyridin-2(1H)-yl)-2-oxoethoxy)-4-ethylpyrimidin-2-yl)methanesulfonamide]	58 nM	
CCc1nc(C(=O)NC2CC2)ccc1OCC(=O)N1CCc2nc3n(c2C1c1ccc(C)c(F)c1F)CCCC3 (stereo not drawn) [Example 1.9.10, N-cyclopropyl-5-(2-(1-(2,3-difluoro-4-methylphenyl)-3,4,6,7,8,9-hexahydroimidazo[1,2-a:5,4-c′]dipyridin-2(1H)-yl)-2-oxoethoxy)-6-ethylpicolinamide]	9 nM	
